Reference: patent US10206986B2, “Annexin II variant compositions and methods” (REGENTS OF THE UNIVERSITY OF MINNESOTA, priority 2013, dated 2019)
One block for each sequence: values may come before it.

What was measured:
breast tumor = experiment: Breast-tumor-bearing mice vaccinated intraperitoneally, tumor growth and survival; type: in vivo, BALB/c mice; settings: 10 consecutive days intraperitoneally; for survival of tumor bearing mice: breast tumor bearing BALB/c mice, compared to saline or scrambled control, FIG. 5
Experimental: (§1) Next, we investigated the use of the A2OVA in vivo. A2OVA peptide (SEQ ID NO:32) was given to non-tumor bearing mice as described in FIG. 4A to see if they would elicit an OVA specific T cell response. […] To determine if the 35 amino acid annexin II fragment can extend survival in tumor bearing animals in an antigen non-specific manner, we used breast tumor bearing BALB/c mice, which lack the MHC haplotype to present SIINFEKL. Mice were treated with A2OVA peptide as summarized in FIG. 5A and followed for survival.

hTLR2 = target: T1, hTLR2 (Homo sapiens, UniProt O60603); experiment: TLR2-transfected HEK 293 Blue cells, secreted alkaline phosphatase (NF-κB activity); type: cell-based; settings: 48 hours, FIGS. 3, 6, 7
T1 construct: host or cells: HEK 293 Blue Cells
T1 sequence (O60603 21-784): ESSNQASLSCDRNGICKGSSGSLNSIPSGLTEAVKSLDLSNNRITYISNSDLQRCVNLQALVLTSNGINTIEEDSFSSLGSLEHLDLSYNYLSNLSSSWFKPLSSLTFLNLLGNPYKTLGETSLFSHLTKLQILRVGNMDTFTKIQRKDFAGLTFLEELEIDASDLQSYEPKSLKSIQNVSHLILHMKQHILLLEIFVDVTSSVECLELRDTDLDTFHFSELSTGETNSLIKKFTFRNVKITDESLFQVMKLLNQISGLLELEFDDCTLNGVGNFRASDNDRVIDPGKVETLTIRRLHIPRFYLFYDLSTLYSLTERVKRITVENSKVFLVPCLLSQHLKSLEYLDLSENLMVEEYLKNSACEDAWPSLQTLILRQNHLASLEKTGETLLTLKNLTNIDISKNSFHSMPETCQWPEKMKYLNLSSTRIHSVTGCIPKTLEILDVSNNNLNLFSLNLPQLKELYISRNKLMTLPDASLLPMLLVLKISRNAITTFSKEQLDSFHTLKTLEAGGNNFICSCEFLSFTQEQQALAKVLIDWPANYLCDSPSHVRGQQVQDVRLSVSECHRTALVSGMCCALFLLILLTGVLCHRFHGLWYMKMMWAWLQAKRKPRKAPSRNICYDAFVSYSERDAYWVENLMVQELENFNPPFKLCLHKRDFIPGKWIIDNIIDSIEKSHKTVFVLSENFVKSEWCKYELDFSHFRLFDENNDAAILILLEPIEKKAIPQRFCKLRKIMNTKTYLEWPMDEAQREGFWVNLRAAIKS
From the text: (§2) To test if the 35 amino acid N-terminus of annexin II, which distinguishes annexin II from other annexins, contains adjuvant activity, we pulsed bone marrow-derived dendritic cells (BMDC) with gp100+/−A2OVA, fusion peptide containing this 35 amino acid fragment. […] We then tested whether this fusion peptide enhanced adjuvant activity over that of addition of OVA and full length annexin II protein. BMDC were pulsed with A2OVA and we measured the OVA-specific OT-1 CD8 T cell response. […] To further investigate the ability to derive a novel single antigen fusion peptide, we constructed OVA fusion peptides in which an OVA peptide (SEQ ID NO:9) was fused to either an annexin II N-terminal fragment or a scrambled 35 amino acid peptide to produce SEQ ID NO:30 and SEQ ID NO:29, respectively. Peptides were pulsed on TLR2 transfected cells and alkaline phosphatase activity was used to determine NF-κB activity (FIG. 3).
HEK 293 Blue Cells (Invivogen, San Diego, Calif.) stably transfected with hTLR2 were pulsed with annexin II-OVA fusion protein (A2OVA, SEQ ID NO:32) at equal concentration as annexin II monomer (A2 Peptide, SEQ ID NO:28). Scrambled annexin II N-terminus polypeptide (SEQ ID NO:29, Scrambled) and an annexin II fragment (SEQ ID NO:30, Minus p11) were used as controls. Cells were incubated for 48 hours. Following incubation, supernatant was added to Quanti-Blue (Invivogen, San Diego, Calif.) for secreted alkaline phosphatase detection.
(§3) TLR2-transfected HEK 293 Blue Cells and TLR4-transfected HEK 293 Blue Cells (Invivogen, San Diego, Calif.) were pulsed with the N-terminal 15 amino acid annexin II fragment peptide (15aa Peptide, SEQ ID NO:5) at different concentrations. Cells were incubated for 48 hours. Following incubation, supernatant was added to Quanti-Blue (Invivogen, San Diego, Calif.) for secreted alkaline phosphatase detection.
as §3, with “or one of the annexin II variants shown in Table 1.” for “at different concentrations.”

TLR4 = target: T2, TLR4 (Homo sapiens, UniProt O00206); experiment: TLR4-transfected HEK 293 Blue cells, secreted alkaline phosphatase (NF-κB activity); type: cell-based; settings: 48 hours, FIGS. 6, 7
T2 construct: host or cells: HEK 293 Blue Cells
T2 sequence (O00206 24-839, species assumed): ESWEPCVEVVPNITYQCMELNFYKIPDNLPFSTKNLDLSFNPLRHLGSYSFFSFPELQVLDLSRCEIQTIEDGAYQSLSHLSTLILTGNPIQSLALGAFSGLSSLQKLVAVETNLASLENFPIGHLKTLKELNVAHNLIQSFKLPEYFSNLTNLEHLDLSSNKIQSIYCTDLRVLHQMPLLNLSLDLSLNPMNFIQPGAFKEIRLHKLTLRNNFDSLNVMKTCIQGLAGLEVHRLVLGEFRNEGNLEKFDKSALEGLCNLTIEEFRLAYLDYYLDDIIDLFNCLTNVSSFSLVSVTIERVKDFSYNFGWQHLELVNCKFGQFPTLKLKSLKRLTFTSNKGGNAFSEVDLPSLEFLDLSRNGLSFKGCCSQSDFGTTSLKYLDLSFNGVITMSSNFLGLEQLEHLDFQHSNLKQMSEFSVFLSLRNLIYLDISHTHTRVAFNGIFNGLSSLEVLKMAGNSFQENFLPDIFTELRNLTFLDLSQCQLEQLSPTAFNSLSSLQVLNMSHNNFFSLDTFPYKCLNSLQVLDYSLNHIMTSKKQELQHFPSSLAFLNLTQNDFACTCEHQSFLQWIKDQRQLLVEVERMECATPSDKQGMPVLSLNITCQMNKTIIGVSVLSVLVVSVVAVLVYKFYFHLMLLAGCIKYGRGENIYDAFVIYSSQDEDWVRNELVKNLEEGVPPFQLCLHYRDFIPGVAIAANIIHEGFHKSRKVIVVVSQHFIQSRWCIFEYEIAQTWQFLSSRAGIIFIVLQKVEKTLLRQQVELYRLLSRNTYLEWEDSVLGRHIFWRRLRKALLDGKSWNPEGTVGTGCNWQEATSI
T2 sequence (Q9Y6Y9 17-160 partner limits assumed, species assumed): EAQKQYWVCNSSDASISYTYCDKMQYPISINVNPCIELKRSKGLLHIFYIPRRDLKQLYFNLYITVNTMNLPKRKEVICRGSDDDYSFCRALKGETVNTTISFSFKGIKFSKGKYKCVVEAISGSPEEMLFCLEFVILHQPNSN
From the text: To better characterize the 35 amino acid N-terminus as an adjuvant, we serially removed five amino acids from the C-terminus end of the N-terminal fragment to produce annexin II variants SEQ ID NO:2, SEQ ID NO:3, SEQ ID NO:4, SEQ ID NO:5, and SEQ ID NO:6. We tested the resulting peptides for NF-κB activity. […] To test the ability of the 15 amino acid annexin II fragment (SEQ ID NO:5) to stimulate an immune response, and to determine whether its ability to do so is mediated through TLR2, wild-type and TLR-2 knockout mice were given OVA±annexin II or OVA±the 15 amino acid N-terminal annexin II fragment (SEQ ID NO:5).
as §3
TLR2-transfected HEK 293 Blue Cells and TLR4-transfected HEK 293 Blue Cells (Invivogen, San Diego, Calif.) were pulsed with the N-terminal 15 amino acid annexin II fragment peptide (15aa Peptide, SEQ ID NO:5) or one of the annexin II variants shown in Table 1. Cells were incubated for 48 hours. […]

[1] = tested on: bone marrow derived dendritic cells; experiment: BMDCs (wild-type, TLR2-/-, TLR4-/-, MyD88-/-) pulsed with peptide, CD80/CD86 by flow cytometry; type: cell-based, mice; settings: 50 μg peptide, 48 hours, TLR2, TLR4 and MyD88 knockout BMDCs, CD11c+MHCII+ gate; for CD80 co-stimulatory molecule expression (MFI): FIG. 11; for CD86 co-stimulatory molecule expression (MFI): FIG. 12
Experimental: To further characterize the activity of the A-6 variant (SEQ ID NO:17), BMDCs from wild-type, TLR2 knockout, TLR4 knockout, and MyD88 knockout mice were pulsed with the peptide and analyzed for co-stimulatory molecules CD80 (FIG. 11) and CD86 (FIG. 12).
BDMCs (wild-type, TLR2^−/−, TLR4^−/−, and MyD88^−/−) were cultured with 20 ng/mL GM-CSF for six days, then pulsed with 50 ng Pam3CSK4, 50 ng LPS, 50 μg of the N-terminal 15 amino acid annexin II fragment peptide (SEQ ID NO:5, 15aa A2p), or 50 μg of annexin II variant A-6 (SEQ ID NO:17, 15aa A2p6 AL). After 48 hours, cells were stained for CD11c, MHC II, CD80, and CD86 and analyzed by flow cytometry. MFI shown is from a live cell, CD11c^+MHCII^+ gate.

[2] = tested on: OVA specific CD8+ T cell response; experiment: Vaccination of BL/6 mice, CD8+SIINFEKL+ expansion in whole blood on Day 8; type: in vivo; settings: four consecutive days, hind leg
Experimental: as §1
BL/6 mice also were vaccinated for four consecutive days in the hind leg with ovalbumin (OVA), ovalbumin+ and 50 μg of the N-terminal 15 amino acid annexin II fragment peptide (SEQ ID NO:5, 15aa), or ovalbumin+50 μg the annexin II variant A-6 (Table 1, SEQ ID NO:17, 15aaP6). On Day 8, mice were bled and whole blood was analyzed for CD8^+SIINFEKL^+ expansion.

[3] = tested on: bone marrow derived dendritic cells; experiment: BMDCs (wild-type, TLR4-/-, MyD88-/-) pulsed with peptide, TNF in supernatant by bead array; type: cell-based, mice; settings: 50 μg peptide, 48 hours, TLR4 knockout and MyD88 knockout BMDCs, FIG. 10
Experimental: To determine the 15 amino acid N-terminal annexin II fragment's activity on dendritic cells, BMDCs were derived for wild-type, TLR4 knockout, and MyD88 knockout mice. The various BMDCs and pulsed with the 15 amino acid N-terminal annexin II fragment (SEQ ID NO:5).
BMDCs (wild-type, TLR4^−/−, and MyD88^−/−) were cultured with 20 ng/mL GM-CSF for six days, then pulsed with 50 ng Pam3CSK4, 50 ng LPS, or 50 μg of the N-terminal 15 amino acid annexin II fragment peptide (SEQ ID NO:5, A2-15aa). After 48 hours, cell culture supernatant was assayed for TNF by bead array.

[4] = tested on: gp100-specific CD8 T cell response; experiment: BMDCs pulsed with hgp100 25-33 plus peptide, co-cultured with Pmel CD8+ T cells, IFN-γ by bead array; type: cell-based, C57BL/6 mice; settings: BMDC pulsed with gp100 +/- A2OVA; equal concentration and equal molecular ratio compared to full-length annexin II; FIG. 1
From the text: as §2
Bone marrow derived dendritic cells (BMDCs) were differentiated from C57BL/6 mice and pulsed with hgp10025-33 (SEQ ID NO: 27) with annexin II-OVA fusion protein (SEQ ID NO:32) at equal concentration (*) or equal molecular ratio (**) as A2 monomer (SEQ ID NO:28) and incubated for 24 hours. Annexin A2 monomer was used as a positive control. […] IFN-γ in the tissue culture supernatant was quantified by bead array.

[5] = tested on: OVA-specific OT-1 CD8 T cell response; experiment: BMDCs pulsed with OVA peptide/fusion, co-cultured with OT-I CD8+ T cells, IFN-γ by bead array; type: cell-based, mice; settings: BMDC pulsed with A2OVA versus A2 monomer + OVA as separate agents; FIG. 2
From the text: as §2
BMDCs were pulsed with OVA248-274 (SEQ ID NO:31), annexin II (A2 monomer, SEQ ID NO:28), a combination of OVA248-274 and annexin II (A2 monomer+OVA), or annexin II-OVA fusion protein (A2OVA, SEQ ID NO:32), and incubated for 24 hours. Purified OT-I CD8^+ T cells were added and co-cultured for an additional 48 hours. IFN-γ in the tissue culture supernatant was quantified by bead array.

Sequence: DHSTPPSAYGSVKPYTNFDAEEQLESIINFEKLTEWT (DHSTPPSAYGSVKPYTNFDAEEQLESIINFEKLTEWT; annexin II peptide fragment minus p11) [SEQ ID NO:30, reference compound]
survival of tumor bearing mice (breast tumor): conferred no survival benefit | NF-κB activity through TLR2 (alkaline phosphatase) (hTLR2): did not elicit a response

NF-κB activity through TLR4 (alkaline phosphatase) (TLR4): enhanced TLR2 and TLR4 signaling | NF-κB activity through TLR2 (alkaline phosphatase) (hTLR2): enhanced TLR2 and TLR4 signaling
Sequence: STVHEALCKL SLEGD (STVHEALCKLSLEGD; annexin II variant polypeptide) [A-6, alanine for isoleucine substitution at position six of a 15 amino acid annexin II fragment]
CD80 co-stimulatory molecule expression (MFI) [1]: increased CD80 and CD86 co-stimulatory molecule expression in a TLR4- and MyD88-dependent manner | CD86 co-stimulatory molecule expression (MFI) [1]: increased CD80 and CD86 co-stimulatory molecule expression in a TLR4- and MyD88-dependent manner | OVA specific T cell priming in vivo (CD8+SIINFEKL+ expansion) ([2]; BL/6 mice, ovalbumin + 50 μg peptide, Day 8, versus 15aa fragment, FIG. 9): enhanced OVA specific T cell priming in vivo

NF-κB activity through TLR2 (alkaline phosphatase) (hTLR2): activated TLR2
Sequence: STVHEILCKL SLEGD (STVHEILCKLSLEGD; annexin II variant polypeptide) [SEQ ID NO:5, N-terminal 15 amino acid annexin II fragment peptide]
CD80 co-stimulatory molecule expression (MFI) [1]: increased CD80 and CD86 co-stimulatory molecule expression in a TLR4- and MyD88-dependent manner | CD86 co-stimulatory molecule expression (MFI) [1]: increased CD80 and CD86 co-stimulatory molecule expression in a TLR4- and MyD88-dependent manner | TNF secretion from BMDCs [3]: mediated induction of TNF secretion and that the activity is MyD88-dependent

Sequence: STVHEILCKLSLEGDHSTPPSAYGSVKPYTNFDAEEQLESIINFEKLTEWT (STVHEILCKLSLEGDHSTPPSAYGSVKPYTNFDAEEQLESIINFEKLTEWT; annexin II-OVA fusion protein (A2OVA) polypeptide) [fusion peptide of the 35 amino acid annexin II N-terminus and OVA peptide]
adjuvant activity in gp100-specific CD8 T cell response (IFN-γ) [4]: exerted adjuvant activity | antigen specific CD8+ T cell response in vivo (CD8+SIINFEKL+ expansion) ([2]; non-tumor bearing BL/6 mice, Poly:ICLC and 50 μg peptide, Day 8, FIG. 4B): stimulated an antigen specific CD8^+ T cell response in vivo | survival of tumor bearing mice (breast tumor): enhanced survival compared to saline or scrambled control | tumor size (breast tumor; breast tumor bearing mice, FIG. 5B): reducing tumor size in vivo | NF-κB activity through TLR2 (alkaline phosphatase) (hTLR2): stimulated NF-κB through TLR2 | IFNγ response of OVA-specific OT-1 CD8 T cells [5]: induced an IFNγ response superior to that of A2 monomer (A2m)+OVA added as separate agents
